Test results taken from patent US7727999B2, “Spiroazacyclic compounds as monoamine receptor modulators” (ACADIA Pharmaceuticals Inc., priority 2001, dated 2010).
Where a name gives a salt, the structure may show the parent alone.

Key:
[1] = molecular target: T1, m3 (Homo sapiens, UniProt P20309); test: R-SAT selectivity profiling, m3; type: cell-based; details: m3, antagonist assay; read-out: pEC50 or pIC50 (converted)
T1 construct: expressed in transfected cells; host or cells: NIH3T3 cells, pSI vector
T1 sequence (P20309 whole entry): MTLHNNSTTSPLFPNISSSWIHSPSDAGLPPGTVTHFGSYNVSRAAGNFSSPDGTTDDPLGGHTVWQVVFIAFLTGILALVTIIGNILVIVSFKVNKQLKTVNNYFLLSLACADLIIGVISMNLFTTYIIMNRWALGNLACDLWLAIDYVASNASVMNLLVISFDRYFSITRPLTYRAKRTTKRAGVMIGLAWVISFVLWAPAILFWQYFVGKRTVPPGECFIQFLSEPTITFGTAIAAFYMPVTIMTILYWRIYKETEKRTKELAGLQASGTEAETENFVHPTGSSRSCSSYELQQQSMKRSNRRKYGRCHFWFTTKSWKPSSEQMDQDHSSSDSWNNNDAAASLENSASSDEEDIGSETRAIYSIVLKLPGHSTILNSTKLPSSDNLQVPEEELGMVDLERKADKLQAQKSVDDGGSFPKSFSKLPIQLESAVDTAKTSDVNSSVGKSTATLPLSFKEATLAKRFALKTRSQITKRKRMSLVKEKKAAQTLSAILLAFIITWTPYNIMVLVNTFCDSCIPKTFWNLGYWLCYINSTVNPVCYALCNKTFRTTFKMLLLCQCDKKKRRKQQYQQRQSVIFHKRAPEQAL
Experimental: (§1) The functional receptor assay, Receptor Selection and Amplification Technology (R-SAT), was used (with minor modifications from that previously described U.S. Pat. No. 5,707,798) to screen compounds for efficacy at the 5-HT2A receptor. Briefly, NIH3T3 cells were grown in 96 well tissue culture plates to 70-80% confluence. Cells were transfected for 12-16 hours with plasmid DNAs using superfect (Qiagen Inc.) as per manufacture's protocols. R-SAT's were generally performed with 50 ng/well of receptor and 20 ng/well of Beta-galactosidase plasmid DNA-All receptor and G-protein constructs used were in the pSI mammalian expression vector (Promega Inc) as described in U.S. Pat. No. 5,707,798. The 5HT2A receptor gene was amplified by nested PCR from brain cDNA using the oligodeoxynucleotides based on the published sequence (see Saltzman et. al. Biochem. Biophys. Res. Comm. 181:1469-78 (1991)). Large-scale transfections, cells were transfected for 12-16 hours, then trypsinized and frozen in DMSO. […] Media was then removed from the plates and marker gene activity was measured by the addition of the beta-galactosidase substrate ONPG (in PBS with 5% NP-40). The resulting calorimetric reaction was measured in a spectrophotometric plate reader (Titertek Inc.) at […]. All data were analyzed using the computer program XLFit (IDBSm). […]

[2] = molecular target: T2, 5HT 2C (Homo sapiens, UniProt P28335); test: R-SAT selectivity profiling, 5HT 2C; type: cell-based
T2 construct: expressed in transfected cells; host or cells: NIH3T3 cells, pSI vector
T2 sequence (P28335 33-458): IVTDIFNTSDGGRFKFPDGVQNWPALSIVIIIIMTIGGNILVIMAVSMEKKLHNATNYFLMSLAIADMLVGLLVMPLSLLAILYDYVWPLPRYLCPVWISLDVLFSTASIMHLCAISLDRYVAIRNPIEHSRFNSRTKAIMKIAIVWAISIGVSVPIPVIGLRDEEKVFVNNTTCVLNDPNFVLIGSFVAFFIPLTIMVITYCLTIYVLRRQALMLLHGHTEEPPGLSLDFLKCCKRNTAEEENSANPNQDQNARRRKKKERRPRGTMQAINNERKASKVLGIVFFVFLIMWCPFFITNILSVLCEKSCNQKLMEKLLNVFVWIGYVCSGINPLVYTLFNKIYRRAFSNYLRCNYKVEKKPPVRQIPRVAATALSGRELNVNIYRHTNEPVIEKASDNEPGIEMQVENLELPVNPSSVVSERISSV
Experimental: as §1

[3] = tested on: MK-801-induced hyperactivity in mice; test: Attenuation of MK-801 (dizocilpine)-induced hyperactivity in mice; type: in vivo; details: for MED (mg/kg) p.o.: mice treated with MK801, oral administration; for dose giving statistically significant decrease of MK-801-induced hyperactivity compared to vehicle control: 0.3 mg/kg dizocilpine i.p.
Experimental: Male Non-Swiss Albino mice (Harlan Sprague-Dawley) were housed (4 mice/cage) in rooms with temperature and humidity controlled and water and food (Harlan Teklad) freely available. Mice were kept on a 12-hr light:dark cycle. For locomotor experiments, plastic 20×20×30 cm activity cages were equipped with photocell beams (AccuScan Instruments).
(§2) For hyperactivity experiments, mice were treated with 0.3 mg/kg dizocilpine i.p. 15 min before the session. Mice were treated with 69NLS75 s.c. 10 min before the session or p.o. 30 min before the session and placed into the activity cages. For spontaneous activity, 69NLS75 was administered alone. Locomotor data were collected during a 15 min session without habituation in a lit room. Each dose combination was tested in a separate group of animals (n=8). Distance traveled (cm) was calculated and averaged followed by ANOVA and post-hoc Dunnett's t-test comparisons.
The effect of various compounds on locomotor activity in mice treated with MK801 was observed as described above.
Animals received 0.1-30 mg/kg of the compound indicated via subcutaneous injection or oral administration. MED indicates the minimum effective dose at which a statistically significant reduction of locomotor activity (described above) was observed. MED=minimum effective dose in vivo.

[4] = tested on: spontaneous locomotor activity; test: Spontaneous locomotor activity in mice; type: in vivo; details: at doses that attenuate MK-801 hyperactivity; compound administered alone
Experimental: as §2, with “Male Non-Swiss Albino mice (Harlan Sprague-Dawley) were housed (4 mice/cage) in rooms with temperature and humidity controlled and water and food (Harlan Teklad) freely available. Mice were kept on a 12-hr light:dark cycle. For locomotor experiments, plastic 20×20×30 cm activity cages were equipped with photocell beams (AccuScan Instruments). For hyperactivity” for “For hyperactivity”

[5] = molecular target: T3, 5HT1A (Homo sapiens, UniProt P08908); test: R-SAT selectivity profiling, 5HT1A; type: cell-based; details: antagonist assay, read-out: pEC50 or pIC50 (converted)
T3 construct: expressed in transfected cells; host or cells: NIH3T3 cells, pSI vector
T3 sequence (P08908 1-422): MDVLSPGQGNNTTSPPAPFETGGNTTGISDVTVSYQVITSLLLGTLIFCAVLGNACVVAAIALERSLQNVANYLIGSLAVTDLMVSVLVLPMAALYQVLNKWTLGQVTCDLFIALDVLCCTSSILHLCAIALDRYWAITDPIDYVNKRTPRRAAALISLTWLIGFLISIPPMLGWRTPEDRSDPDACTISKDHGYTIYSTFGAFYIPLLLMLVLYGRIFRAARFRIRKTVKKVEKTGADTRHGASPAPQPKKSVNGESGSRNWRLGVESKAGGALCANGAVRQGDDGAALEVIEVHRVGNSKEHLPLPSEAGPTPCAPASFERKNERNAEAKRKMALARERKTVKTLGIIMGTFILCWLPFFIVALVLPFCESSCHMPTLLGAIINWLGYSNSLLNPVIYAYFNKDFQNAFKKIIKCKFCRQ
Experimental: as §1

[6] = molecular target: T4, alpha 2A (Homo sapiens, UniProt P08913); test: R-SAT selectivity profiling, alpha 2A; type: cell-based; details: antagonist assay, read-out: pEC50 or pIC50 (converted)
T4 construct: expressed in transfected cells; host or cells: NIH3T3 cells, pSI vector
T4 sequence (P08913 1-465): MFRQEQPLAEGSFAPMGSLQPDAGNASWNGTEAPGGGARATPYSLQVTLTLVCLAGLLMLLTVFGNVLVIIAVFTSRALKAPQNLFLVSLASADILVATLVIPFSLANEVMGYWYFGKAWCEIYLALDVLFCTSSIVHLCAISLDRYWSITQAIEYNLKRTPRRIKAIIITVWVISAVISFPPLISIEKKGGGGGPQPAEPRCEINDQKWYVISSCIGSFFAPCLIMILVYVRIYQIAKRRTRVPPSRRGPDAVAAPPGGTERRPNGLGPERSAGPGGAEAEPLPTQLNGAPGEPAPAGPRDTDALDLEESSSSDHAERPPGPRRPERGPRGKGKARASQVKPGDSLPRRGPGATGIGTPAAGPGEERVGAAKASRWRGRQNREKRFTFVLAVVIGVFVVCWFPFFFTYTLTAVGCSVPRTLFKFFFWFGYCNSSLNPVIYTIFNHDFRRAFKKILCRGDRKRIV
Experimental: as §1

[7] = molecular target: T5, H1 (Homo sapiens, UniProt P35367); test: R-SAT selectivity profiling, H1; type: cell-based; details: H1, antagonist assay; read-out: pEC50 or pIC50 (converted)
T5 construct: expressed in transfected cells; host or cells: NIH3T3 cells, pSI vector
T5 sequence (P35367 whole entry): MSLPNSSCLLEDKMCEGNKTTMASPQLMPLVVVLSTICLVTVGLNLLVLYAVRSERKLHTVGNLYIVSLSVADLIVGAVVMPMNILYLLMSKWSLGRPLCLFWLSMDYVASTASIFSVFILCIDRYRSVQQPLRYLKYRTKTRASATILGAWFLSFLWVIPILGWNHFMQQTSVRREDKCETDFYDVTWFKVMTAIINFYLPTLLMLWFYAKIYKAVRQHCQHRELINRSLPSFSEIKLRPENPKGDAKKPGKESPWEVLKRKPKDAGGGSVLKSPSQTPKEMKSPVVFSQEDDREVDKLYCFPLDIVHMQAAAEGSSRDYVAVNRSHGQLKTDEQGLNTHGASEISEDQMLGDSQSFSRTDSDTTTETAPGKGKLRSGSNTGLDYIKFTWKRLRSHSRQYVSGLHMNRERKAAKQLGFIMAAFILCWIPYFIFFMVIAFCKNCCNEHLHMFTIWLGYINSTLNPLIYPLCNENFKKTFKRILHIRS
Experimental: as §1

[8] = molecular target: T6, 5-HT2A receptor (Homo sapiens, UniProt P28223); test: R-SAT functional receptor assay at the 5-HT2A receptor; type: cell-based; details: for IC50: R-SAT, NIH3T3 cells, inverse agonism (repression of basal response), read-out: 5HT2A pIC50 (converted)
T6 construct: expressed in transfected cells; host or cells: NIH3T3 cells, pSI mammalian expression vector
T6 sequence (P28223 whole entry): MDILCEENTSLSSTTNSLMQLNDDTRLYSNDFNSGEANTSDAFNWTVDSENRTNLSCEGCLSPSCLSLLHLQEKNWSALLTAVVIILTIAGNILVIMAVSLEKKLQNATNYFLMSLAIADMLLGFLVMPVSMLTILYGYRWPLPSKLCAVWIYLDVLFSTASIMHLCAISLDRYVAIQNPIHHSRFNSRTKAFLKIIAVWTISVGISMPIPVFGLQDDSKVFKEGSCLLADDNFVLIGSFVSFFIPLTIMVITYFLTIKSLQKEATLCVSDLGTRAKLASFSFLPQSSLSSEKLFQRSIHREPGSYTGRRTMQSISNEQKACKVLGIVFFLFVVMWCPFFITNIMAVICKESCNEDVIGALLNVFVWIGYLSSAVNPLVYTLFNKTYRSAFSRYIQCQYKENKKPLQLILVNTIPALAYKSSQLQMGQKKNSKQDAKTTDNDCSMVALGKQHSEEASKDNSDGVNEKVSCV
From the text: The EC50 for an agonist is intended to denote the concentration of a compound needed to achieve 50% of a maximal response seen in R-SAT. For inverse agonists, EC50 is intended to denote the concentration of a compound needed to achieve 50% inhibition of an R-SAT response from basal, no compound, levels.
The functional receptor assay, Receptor Selection and Amplification Technology (R-SAT), was used (with minor modifications from that previously described U.S. Pat. No. 5,707,798) to screen compounds for efficacy at the 5-HT2A receptor. Briefly, NIH3T3 cells were grown in 96 well tissue culture plates to 70-80% confluence. Cells were transfected for 12-16 hours with plasmid DNAs using superfect (Qiagen Inc.) as per manufacture's protocols. R-SAT's were generally performed with 50 ng/well of receptor and 20 ng/well of Beta-galactosidase plasmid DNA-All receptor and G-protein constructs used were in the pSI mammalian expression vector (Promega Inc) as described in U.S. Pat. No. 5,707,798. The 5HT2A receptor gene was amplified by nested PCR from brain cDNA using the oligodeoxynucleotides based on the published sequence (see Saltzman et. al. Biochem. Biophys. Res. Comm. 181:1469-78 (1991)). Large-scale transfections, cells were transfected for 12-16 hours, then trypsinized and frozen in DMSO. Frozen cells were later thawed, plated at 10,000-40,000 cells per well of a 96 well plate that contained drug. With both methods, cells were then grown in a humidified atmosphere with 5% ambient CO2 for five days. Media was then removed from the plates and marker gene activity was measured by the addition of the beta-galactosidase substrate ONPG (in PBS with 5% NP-40). The resulting […] reaction was measured in a spectrophotometric plate reader (Titertek Inc.) at […]. All data were analyzed using the computer program XLFit (IDBSm). Efficacy is the percent maximal repression compared to repression by a control compound (ritanserin in the case of 5HT2A). pIC50 is the negative of the log(IC50), where IC50 is the calculated concentration in Molar that produces 50% maximal repression.
The R-SAT assay (described above in example) was used to investigate the selectivity of 4-(4-Fluoro-benzyl)-3-(4-isobutoxy-benzyl)-8-methyl-1-oxa-3,8-diaza-spiro[4.5]decan-2-one.

[9] = minimum effective dose for statistically significant reduction of locomotor activity
[10] = efficacy: percent maximal repression compared to ritanserin

In the case of `CC(C)COc1ccc(CN2C(=O)OC3(CCN(C)CC3)C2Cc2ccc(F)cc2)cc1.Cl` (racemic) [Compound 69NLS75, 4-(4-Fluorobenzyl)-3-(4-isobutoxybenzyl)-8-methyl-1-oxa-3,8-diaza-spiro[4.5]decan-2-one, hydrochloride], the IC50 [1] is reported as 398 nM, the “efficacy in brackets (%)” value [2] is reported as 77% and the IC50 ([2]; 5HT 2C, inverse agonist assay, read-out: pEC50 or pIC50 (converted)) is reported as 31.6 nM. The “effect on MK-801-induced hyperactivity in mice” value ([3]; distance traveled, 15 min session) was “dose-related decrease”, the “MED (mg/kg) p.o.” value [3, 9] was 3 mg/kg and the “MED (mg/kg) s.c.” value ([3]; minimum effective dose for statistically significant reduction of locomotor activity, mice treated with MK801, subcutaneous injection) was 3 mg/kg. For the same compound, the “dose giving statistically significant decrease of MK-801-induced hyperactivity compared to vehicle control” value ([3]; p.o. 30 min before session) was 3 mg/kg, the “dose giving statistically significant decrease of MK-801-induced hyperactivity compared to vehicle control” value ([3]; s.c. 10 min before session) was 3 mg/kg and the “effect on spontaneous locomotor activity” value [4] was “no effect”. It also gave an IC50 [5] of 398 nM, an IC50 [6] of 501 nM and an IC50 [7] of 200 nM. For the same compound, the “efficacy in brackets (%)” value ([8]; 5HT2A, inverse agonist assay) was 94%, the “pEC50 or pIC50” value ([8]; 5HT2A, inverse agonist assay) was 9.5 and the IC50 [8] was 0.316 nM. It also gave an Emax ([8]; efficacy: percent maximal repression compared to ritanserin, read-out: 5HT2A % inhibition) of 94%.

`CC(C)COc1ccc(CN2C(=O)OC3(CCN(C)CC3)[C@@H]2Cc2ccc(F)cc2)cc1` (single isomer, unassigned) [Compound 78NLS59, hydrochloride] was tested, and the “enantiomer preference at the 5-HT2A receptor in vitro” value ([8]; (S)- versus (R)-enantiomer, Table 1) was “eutomer”, the IC50 [8] was 0.251 nM and the 5HT2A % inhibition [8, 10] was 98%.

Work on `CC(C)COc1ccc(CN2C(=O)OC3(CCN(C)CC3)[C@H]2Cc2ccc(F)cc2)cc1.Cl` (single isomer, unassigned) [Compound 78NLS62, hydrochloride] yielded an IC50 [8] of 6.31 nM.

Work on `CC(C)COc1ccc(CN2C(=O)OC3(CCN(C)CC3)[C@H]2Cc2ccc(F)cc2)cc1.Cl` (single isomer, unassigned) [Compound 78NLS62] yielded a 5HT2A % inhibition [8, 10] of 89%.

`CN1CCC2(CC1)OC(=O)N(Cc1ccc(OCC3CC3)cc1)C2Cc1ccc(F)cc1.Cl` (centres unmarked) [Compound 69NLS52, 3-(4-Cyclopropylmethoxybenzyl)-4-(4-fluorobenzyl)-8-methyl-1-oxa-3,8-diaza-spiro[4.5]decan-2-one, hydrochloride] was tested, and the “MED (mg/kg) p.o.” value [3, 9] was 10 mg/kg.

`CC(C)COc1ccc(CN2C(=O)OC3(CCN(CCC4OCCO4)CC3)C2Cc2ccc(F)cc2)cc1.Cl` (centres unmarked) [Compound 69NLS79-II, 8-(2-[1,3]Dioxolan-2-yl-ethyl)-4-(4-fluorobenzyl)-3-(4-isobutoxybenzyl)-1-oxa-3,8-diaza-spiro[4.5]decan-2-one, hydrochloride] was tested, and the “MED (mg/kg) p.o.” value [3, 9] was 3 mg/kg.
